Data on two compounds can be found in ChEMBL document CHEMBL1275493, “Anti-human immunodeficiency virus type 1 activities of antimicrobial peptides derived from human and bovine cathelicidins” (Antimicrob Agents Chemother, 2008).

Data set [1] deals with CEM-SS. In words: Cytotoxicity against Human immunodeficiency virus 1 3B infected human CEM-SS cells. Format: functional. As to conditions: read-out: TC50 (the source's name).
The subject of data set [2] is Human immunodeficiency virus 1. In words: Antiviral activity against Human immunodeficiency virus 1 3B infected in CEM-SS cells. Format: functional, organism-based.
Data set [3] in a line: Therapeutic index, TC50 for Human immunodeficiency virus 1 3B infected human CEM-SS cells to EC50 for immunodeficiency virus 1 3B. The format is cell-based. The conditions noted are these: CEM-SS cells infected with HIV-1 3B, read-out: TI.

Broadly, the pEC50 is −log10 of the EC50, conventionally taken in molar units. A low value points to a large EC50.

pEC50: −log10 of the molar value. Peptide text beside a SMILES is read from it.

In the case of `CC[C@H](C)[C@H](NC(=O)[C@H](CCCCN)NC(=O)[C@H](CCCCN)NC(=O)[C@H](Cc1ccccc1)NC(=O)[C@H](CC(C)C)NC(=O)[C@H](CCCCN)NC(=O)[C@H](CCCCN)NC(=O)[C@H](Cc1ccccc1)NC(=O)[C@@H]1CCCN1C(=O)[C@H](CCCCN)NC(=O)[C@H](CCCNC(=N)N)NC(=O)[C@H](Cc1ccccc1)NC(=O)[C@H](CCCNC(=N)N)NC(=O)[C@H](CCCCN)NC(=O)[C@H](Cc1ccccc1)NC(=O)[C@H](CCCNC(=N)N)NC(=O)CN)C(=O)N[C@@H](CO)C(=O)O` (H-GRFKRFRKPFKKLFKKIS-OH), the CC50 in data set [1] stood at 18.9 µM. Further, the pEC50 in data set [2] is 5.49. For the same compound, the selectivity ratio in data set [3] was found to be 5.9.

Take `CC[C@H](C)[C@H](NC(=O)[C@H](CCCCN)NC(=O)[C@H](CCC(=O)O)NC(=O)[C@H](CCCCN)NC(=O)[C@@H](N)CO)C(=O)NCC(=O)N[C@@H](CCCCN)C(=O)N[C@@H](CCC(=O)O)C(=O)N[C@@H](Cc1ccccc1)C(=O)N[C@@H](CCCCN)C(=O)N[C@@H](CCCNC(=N)N)C(=O)N[C@H](C(=O)N[C@H](C(=O)N[C@@H](CCC(N)=O)C(=O)N[C@@H](CCCNC(=N)N)C(=O)N[C@H](C(=O)N[C@@H](CCCCN)C(=O)N[C@@H](CC(=O)O)C(=O)N[C@@H](Cc1ccccc1)C(=O)N[C@@H](CC(C)C)C(=O)N[C@@H](CCCNC(=N)N)C(=O)O)[C@@H](C)CC)C(C)C)[C@@H](C)CC` (H-SKEKIGKEFKRIVQRIKDFLR-OH): the CC50 in data set [1] amounted to 22.5 µM. The compound further had a pEC50 in data set [2] of 4.97. Further, the selectivity ratio in data set [3] is 2.08.
